Experiments:
Assay type in all cases: in vivo
[1] = test system: redroot pigweed (Amaranthus retroflexus, AMARE); assay: Pre-emerge test, greenhouse herbicide activity screening; conditions: for phytotoxicity rating AMARE: pre-emerge, 14 days after application, rating scale 0-100
In short: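 Visual ratings on a 0-100 scale (0 no damage, 100 all plants dead) were taken at 14 days after treatment. Rates of 15-1000 g ai/ha in acetone, 187 l/ha, were sprayed onto soil one day after planting (pre-emerge) or onto 2-3 leaf plants with 0.25% v/v surfactant (post-emerge).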

[2] = test system: barnyardgrass (Echinochloa crus-galli, ECHCG); assay: as above; conditions: for phytotoxicity rating ECHCG: pre-emerge, 14 days after application, rating scale 0-100
In short: (§1)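 Compounds in acetone were track-sprayed at 15-1000 g ai/ha (187 l/ha) on sandy loam pots: pre-emerge one day after seeding, post-emerge at 2-3 leaf stage with 0.25% v/v non-ionic surfactant. Phytotoxicity was rated 14 days later on a 0 (no damage) to 100 (complete death) scale.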

[3] = test system: common ragweed (Ambrosia artemisizfolia L., AMBEL); assay: as above; conditions: for phytotoxicity rating AMBEL: pre-emerge, 14 days after application, rating scale 0-100
In short: as §1

[4] = test system: green foxtail (Setaria viridis, SETVI); assay: as above; conditions: for phytotoxicity rating SETVI: pre-emerge, 14 days after application, rating scale 0-100
In short: as §1

[5] = test system: ivyleaf morningglory (Ipomoea hederacea, IPOHE); assay: as above; conditions: for phytotoxicity rating IPOHE: pre-emerge, 14 days after application, rating scale 0-100
In short: as §1

[6] = test system: johnsongrass (Sorghum halepense, SORHA); assay: as above; conditions: for phytotoxicity rating SORHA: pre-emerge, 14 days after application, rating scale 0-100
In short: as §1

[7] = test system: lambsquarters (Chenopodium album, CHEAL); assay: as above; conditions: for phytotoxicity rating CHEAL: pre-emerge, 14 days after application, rating scale 0-100
In short: as §1

[8] = test system: large crabgrass (Digitaria sanguinalis, DIGSA); assay: as above; conditions: for phytotoxicity rating DIGSA: pre-emerge, 14 days after application, rating scale 0-100
In short: as §1

[9] = test system: sicklepod (Cassia obtusifolia, CASOB); assay: as above; conditions: for phytotoxicity rating CASOB: pre-emerge, 14 days after application, rating scale 0-100
In short: as §1

[10] = test system: velvetleaf (Abutilon theophrasti, ABUTH); assay: as above; conditions: for phytotoxicity rating ABUTH: pre-emerge, 14 days after application, rating scale 0-100
In short: as §1

[11] = test system: field corn (Zea mays L., var. Dekalb 535, CORN); assay: Pre-emerge test, crop safety; conditions: for phytotoxicity rating CORN: pre-emerge, 14 days after application, rating scale 0-100
In short: (§2)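 Rating: 0–100 visual injury, 14 DAA. Application: acetone, 187 l/ha, 15–1000 g ai/ha, flat-fan track sprayer with nozzle 40–45 cm above soil or canopy. Post-emerge runs used 0.25% v/v surfactant on 2–3 leaf plants.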

[12] = test system: upland rice (Oryza sp., var. Tebonnet, RICE); assay: Pre-emerge test, crop safety; conditions: for phytotoxicity rating RICE: pre-emerge, 14 days after application, rating scale 0-100
In short: as §2

[13] = test system: barnyardgrass (Echinochloa crus-galli, ECHCG); assay: Post-emerge test, greenhouse herbicide activity screening; conditions: 14 days after application; for Post-emerge Herbicidal Activity, phytotoxicity rating ECHCG: rating scale 0-100 (0 no damage, 100 complete death)
In short: (§3)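 Fourteen days after spraying, crop and weed injury was graded visually from 0, no effect, to 100, every plant dead. Test substances were dissolved in acetone and applied at 15–1000 g ai/ha with a flat-fan nozzle. Application was either pre-emergence, one day after sowing, or post-emergence at the 2–3 leaf stage.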

[14] = test system: common ragweed (Ambrosia artemisizfolia L., AMBEL); assay: as above; conditions: 14 days after application
In short: as §3

[15] = test system: green foxtail (Setaria viridis, SETVI); assay: as above; conditions: 14 days after application; for Post-emerge Herbicidal Activity, phytotoxicity rating SETVI: rating scale 0-100 (0 no damage, 100 complete death)
In short: as §3

[16] = test system: ivyleaf morningglory (Ipomoea hederacea, IPOHE); assay: as above; conditions: 14 days after application; for Post-emerge Herbicidal Activity, phytotoxicity rating IPOHE: rating scale 0-100 (0 no damage, 100 complete death)
In short: as §3

[17] = test system: johnsongrass (Sorghum halepense, SORHA); assay: as above; conditions: 14 days after application; for Post-emerge Herbicidal Activity, phytotoxicity rating SORHA: rating scale 0-100 (0 no damage, 100 complete death)
In short: as §3

[18] = test system: lambsquarters (Chenopodium album, CHEAL); assay: as above; conditions: 14 days after application; for Post-emerge Herbicidal Activity, phytotoxicity rating CHEAL: rating scale 0-100 (0 no damage, 100 complete death)
In short: as §3

[19] = test system: large crabgrass (Digitaria sanguinalis, DIGSA); assay: as above; conditions: 14 days after application; for Post-emerge Herbicidal Activity, phytotoxicity rating DIGSA: rating scale 0-100 (0 no damage, 100 complete death)
In short: as §3

[20] = test system: redroot pigweed (Amaranthus retroflexus, AMARE); assay: as above; conditions: 14 days after application; for Post-emerge Herbicidal Activity, phytotoxicity rating AMARE: rating scale 0-100 (0 no damage, 100 complete death)
In short: as §3

[21] = test system: sicklepod (Cassia obtusifolia, CASOB); assay: as above; conditions: 14 days after application; for Post-emerge Herbicidal Activity, phytotoxicity rating CASOB: rating scale 0-100 (0 no damage, 100 complete death)
In short: as §3

[22] = test system: velvetleaf (Abutilon theophrasti, ABUTH); assay: as above; conditions: 14 days after application; for Post-emerge Herbicidal Activity, phytotoxicity rating ABUTH: rating scale 0-100 (0 no damage, 100 complete death)
In short: as §3

[23] = test system: field corn (Zea mays L., var. Dekalb 535, CORN); assay: Post-emerge test, crop safety; conditions: 14 days after application; for Post-emerge phytotoxicity rating CORN (crop damage): rating scale 0-100 (0 no damage, 100 complete death)
In short: as §1

[24] = test system: upland rice (Oryza sp., var. Tebonnet, RICE); assay: Post-emerge test, crop safety; conditions: 14 days after application; for Post-emerge phytotoxicity rating RICE (crop damage): rating scale 0-100 (0 no damage, 100 complete death)
In short: as §1

[25] = 63 g ai/ha, rated 14 days after application, 0 = no damage, 100 = complete death
[26] = post-emerge, 63 g ai/ha, rating scale 0-100

COc1c(Cl)cc(F)c(-n2c(=O)cc(C(F)(F)F)n(C)c2=O)c1CC(C)(Cl)C(=O)OCCSC (centres unmarked) [14-48]
phytotoxicity rating AMARE ([1]; 63 g ai/ha): 90
phytotoxicity rating AMARE ([1]; 250 g ai/ha): 100
phytotoxicity rating ECHCG ([2]; 63 g ai/ha): 0
phytotoxicity rating ECHCG ([2]; 250 g ai/ha): 50
phytotoxicity rating AMBEL ([3]; 63 g ai/ha): 0
phytotoxicity rating AMBEL ([3]; 250 g ai/ha): 80
phytotoxicity rating SETVI ([4]; 63 g ai/ha): 0
phytotoxicity rating SETVI ([4]; 250 g ai/ha): 50
phytotoxicity rating IPOHE ([5]; 63 g ai/ha): 0
phytotoxicity rating IPOHE ([5]; 250 g ai/ha): 0
phytotoxicity rating SORHA ([6]; 63 g ai/ha): 0
phytotoxicity rating SORHA ([6]; 250 g ai/ha): 0
phytotoxicity rating CHEAL ([7]; 63 g ai/ha): 50
phytotoxicity rating CHEAL ([7]; 250 g ai/ha): 100
phytotoxicity rating DIGSA ([8]; 63 g ai/ha): 0
phytotoxicity rating DIGSA ([8]; 250 g ai/ha): 70
phytotoxicity rating CASOB ([9]; 63 g ai/ha): 0
phytotoxicity rating CASOB ([9]; 250 g ai/ha): 0
phytotoxicity rating ABUTH ([10]; 63 g ai/ha): 90
phytotoxicity rating ABUTH ([10]; 250 g ai/ha): 100
phytotoxicity rating CORN ([11]; 63 g ai/ha): 0
phytotoxicity rating CORN ([11]; 250 g ai/ha): 40
phytotoxicity rating RICE ([12]; 63 g ai/ha): 30
phytotoxicity rating RICE ([12]; 250 g ai/ha): 70
Post-emerge Herbicidal Activity, phytotoxicity rating ECHCG ([13]; Rate 63 g ai/ha): 50
Post-emerge Herbicidal Activity, phytotoxicity rating ECHCG ([13]; Rate 250 g ai/ha): 100
Post-emerge Herbicidal Activity, phytotoxicity rating AMBEL ([14]; Rate 63 g ai/ha, rating scale 0-100 (0 no damage, 100 complete death)): 80
Post-emerge Herbicidal Activity, phytotoxicity rating SETVI ([15]; Rate 63 g ai/ha): 50
Post-emerge Herbicidal Activity, phytotoxicity rating SETVI ([15]; Rate 250 g ai/ha): 100
Post-emerge Herbicidal Activity, phytotoxicity rating IPOHE ([16]; Rate 63 g ai/ha): 0
Post-emerge Herbicidal Activity, phytotoxicity rating IPOHE ([16]; Rate 250 g ai/ha): 100
Post-emerge Herbicidal Activity, phytotoxicity rating SORHA ([17]; Rate 63 g ai/ha): 0
Post-emerge Herbicidal Activity, phytotoxicity rating SORHA ([17]; Rate 250 g ai/ha): 90
Post-emerge Herbicidal Activity, phytotoxicity rating CHEAL ([18]; Rate 63 g ai/ha): 100
Post-emerge Herbicidal Activity, phytotoxicity rating CHEAL ([18]; Rate 250 g ai/ha): 100
Post-emerge Herbicidal Activity, phytotoxicity rating DIGSA ([19]; Rate 63 g ai/ha): 70
Post-emerge Herbicidal Activity, phytotoxicity rating DIGSA ([19]; Rate 250 g ai/ha): 90
Post-emerge Herbicidal Activity, phytotoxicity rating AMARE ([20]; Rate 63 g ai/ha): 100
Post-emerge Herbicidal Activity, phytotoxicity rating AMARE ([20]; Rate 250 g ai/ha): 100
Post-emerge Herbicidal Activity, phytotoxicity rating CASOB ([21]; Rate 63 g ai/ha): 0
Post-emerge Herbicidal Activity, phytotoxicity rating CASOB ([21]; Rate 250 g ai/ha): 100
Post-emerge Herbicidal Activity, phytotoxicity rating ABUTH ([22]; Rate 63 g ai/ha): 100
Post-emerge Herbicidal Activity, phytotoxicity rating ABUTH ([22]; Rate 250 g ai/ha): 100
Post-emerge phytotoxicity rating CORN (crop damage) ([23]; Rate 63 g ai/ha): 40
Post-emerge phytotoxicity rating CORN (crop damage) ([23]; Rate 250 g ai/ha): 100
Post-emerge phytotoxicity rating RICE (crop damage) ([24]; Rate 63 g ai/ha): 70
Post-emerge phytotoxicity rating RICE (crop damage) ([24]; Rate 250 g ai/ha): 100

COc1c(Cl)cc(F)c(-n2c(=O)cc(C(F)(F)F)n(C)c2=O)c1NC(=O)c1c(F)c(F)c(F)c(F)c1F [2-52]
Pre-emerge Herbicidal Activity, phytotoxicity rating (0-100), AMARE [1, 25]: 100
Pre-emerge Herbicidal Activity, phytotoxicity rating (0-100), ECHCG [2, 25]: 0
Pre-emerge Herbicidal Activity, phytotoxicity rating (0-100), AMBEL [3, 25]: 0
Pre-emerge Herbicidal Activity, phytotoxicity rating (0-100), SETVI [4, 25]: 40
Pre-emerge Herbicidal Activity, phytotoxicity rating (0-100), IPOHE [5, 25]: 0
Pre-emerge Herbicidal Activity, phytotoxicity rating (0-100), SORHA [6, 25]: 0
Pre-emerge Herbicidal Activity, phytotoxicity rating (0-100), CHEAL [7, 25]: 50
Pre-emerge Herbicidal Activity, phytotoxicity rating (0-100), DIGSA [8, 25]: 0
Pre-emerge Herbicidal Activity, phytotoxicity rating (0-100), CASOB [9, 25]: 0
Pre-emerge Herbicidal Activity, phytotoxicity rating (0-100), ABUTH [10, 25]: 10
Pre-emerge phytotoxicity rating (0-100), crop damage, CORN [11, 25]: 0
Pre-emerge phytotoxicity rating (0-100), crop damage, RICE [12, 25]: 0
phytotoxicity rating ECHCG [13, 26]: 0
phytotoxicity rating AMBEL [14, 26]: 20
phytotoxicity rating SETVI [15, 26]: 0
phytotoxicity rating IPOHE [16, 26]: 10
phytotoxicity rating SORHA [17, 26]: 0
phytotoxicity rating CHEAL [18, 26]: 10
phytotoxicity rating DIGSA [19, 26]: 0
phytotoxicity rating AMARE [20, 26]: 30
phytotoxicity rating CASOB [21, 26]: 0
phytotoxicity rating ABUTH [22, 26]: 30
phytotoxicity rating CORN [23, 26]: 0
phytotoxicity rating RICE [24, 26]: 0
